In patent US5317026A, “Acetamide derivative and application thereof” (Snow Brand Milk Products Co., Ltd., priority 1992, dated 1994):

Columns and labels:
[1] = system: hydrochloric acid-ethanol induced ulcer; assay: Hydrochloric acid-ethanol induced ulcer; type: in vivo, Wister male rats; settings: for Suppression / Ulcer index: 60% ethanol containing 150 mM HCl, 1 hour; for Ulcer index: control 41.0 ± 10.9; for ED50: po, rat, per os, read-out: ED50 values in rat ulcer models, hydrochloric acid-ethanol induced ulcer; for suppression of ulcers induced by hydrochloric acid-ethanol (in words): rats
Experimental: Experiments were carried out to investigate the pharmacological activity of Compound RT using ulcer models in Wister male rats. Comparative tests were performed using commercial antiulcer drugs; Cetraxate (trade mark) and Roxatidine (trade mark), each having the following chemical structure. [drawing 11] [(Ulcer index for the control)-(Ulcer index for the tested animal)]/(Ulcer index for the control)×100 Groups of Wister male rats weighing 200-230 g, each group consisting of four rats, were fasted for 24 hours and subjected to the experiment. Cetraxate and Roxatidine, each suspended in 0.5% CMC, were administered to the rats using a per os probe, in an amount of 0.4 ml/100 g. […] After 1 hour, rats were sacrificed to cut out their stomach. 10 ml of a 2% formalin solution was charged into each stomach and the stomach was fixed in the solution for 10 minutes. After fixing, the stomach was opened along the greater curvature, and its mucosal surface was roughly washed with water. […] The total of such length (mm) in each animal was taken as an index for the ulcer production. The ulcer suppression rate (%) was determined in the same manner as above. (3) In order to more clearly identify the activity of Compound RT, both Roxatidine and Cetraxate hydrochloride were administered altogether.

[2] = system: water immersion restrained stress induced ulcer; assay: Water immersion restrained stress induced model; type: in vivo, Wister male rats; settings: for Suppression / Ulcer index: water immersion stress 7 hours; for Ulcer index: control 10.3 ± 4.5; for ED50: po, rat, per os, read-out: ED50 values in rat ulcer models, water immersion restrained stress induced model; for suppression of ulcers induced by the water dipping stress (in words): rats
Experimental: Experiments were carried out to investigate the pharmacological activity of Compound RT using ulcer models in Wister male rats. […] Cetraxate and Roxatidine, each suspended in 0.5% carboxymethyl cellulose (CMC), were administered to the rats using a per os probe, in an amount of 0.4 ml/100 g. 10 to 20 minutes after the administration, the animals were placed in an stress cage (manufactured by Natsume Manufacturing Co.) and dipped into water in a thermostat water bath at 21° C. to a depth of their processus xiphoideus to give a stress. After 7 hours, rats were taken out from the cage and sacrificed to cut out their stomach. 10 ml of a 2% formalin solution was charged into each stomach and the stomach was fixed in the solution for 10 minutes. After fixing, the stomach was opened along the greater curvature, and its mucosal surface was roughly washed with water. […] The total of such length (mm) in each animal was taken as an index for the ulcer production. The ulcer suppression rate (%) was determined based on the index applying the following formula. [(Ulcer index for the control)-(Ulcer index for the tested animal)]/(Ulcer index for the control)×100 (3) In order to more clearly identify the activity of Compound RT, both Roxatidine and Cetraxate hydrochloride were administered altogether.

[3] = hydrochloric acid-ethanol model, than Cetraxate and Roxatidine
[4] = water immersion model, than Cetraxate and Roxatidine

| Structure (SMILES) | Suppression ([1]; 40 mg/kg per os) [%] | Ulcer index ([1]; 40 mg/kg per os) [mm] | ED50 [1] [mg/kg] | Suppression ([2]; 25 mg/kg per os) [%] | Ulcer index ([2]; 25 mg/kg per os) [mm] | ED50 [2] [mg/kg] | Suppression ([1]; 58 mg/kg per os) [%] | Ulcer index ([1]; 58 mg/kg per os) [mm] | rate of suppression compared with Cetraxate and Roxatidine (in words) [1, 3] | ulcer index compared with Cetraxate and Roxatidine (in words) [1, 3] | suppression of ulcers induced by hydrochloric acid-ethanol (in words) [1] | activity against the hydrochloric acid-ethanol induced ulcer compared with combined Roxatidine and Cetraxate hydrochloride (in words) ([1]; versus Roxatidine and Cetraxate hydrochloride administered altogether) | Suppression ([2]; 36 mg/kg per os) [%] | Ulcer index ([2]; 36 mg/kg per os) [mm] | suppression of ulcers induced by the water dipping stress (in words) [2] | effect on the suppression of the acute gastroduodenal ulcer compared with combined use of the two comparative drugs (in words) ([2]; versus combined use of the two comparative drugs) | rate of suppression compared with Cetraxate and Roxatidine (in words) [2, 4] | ulcer index compared with Cetraxate and Roxatidine (in words) [2, 4] |
| --- | --- | --- | --- | --- | --- | --- | --- | --- | --- | --- | --- | --- | --- | --- | --- | --- | --- | --- |
| NC[C@H]1CC[C@H](C(=O)Oc2ccc(CCC(=O)O)cc2)CC1 [Cetraxate, reference compound] | 12.5 | 35.9 ± 14.7 | 60 | 41.7 | 6.0 ± 3.3 | 200 | – | – | – | – | – | – | – | – | – | – | – | – |
| NC[C@H]1CC[C@H](C(=O)OCC(=O)NCCCOc2cccc(CN3CCCCC3)c2)CC1 [Compound RT, 2-(trans-p-aminomethylcyclohexanecarboxy)-N-{3-[3-(1-piperidinomethyl)phenoxy]propyl}acetamide] | – | – | – | – | – | – | 87.6 | 5.1 ± 5.5 | higher rate of suppression | lower ulcer index | effectively suppress the ulcers | almost the same as the case where both Roxatidine and Cetraxate hydrochloride were administered altogether | 93.2 | 0.7 ± 0.5 | effectively suppress the ulcers | remarkably greater effect | higher rate of suppression | lower ulcer index |
| O=C(COC(=O)[C@H]1CC[C@H](CNC(=O)OCc2ccccc2)CC1)NCCCOc1cccc(CN2CCCCC2)c1 [Compound RTP, 2-(N-carbobenzoxy-trans-p-aminomethylhexanecarboxy)-N-{3-[3-(1-piperidinomethyl)-phenoxy]propyl}acetamide] | – | – | – | – | – | – | – | – | – | – | effectively suppress the ulcers | – | – | – | effectively suppress the ulcers | – | – | – |
| O=C(CO)NCCCOc1cccc(CN2CCCCC2)c1 [Roxatidine, N-[3-(3-piperidinomethylphenoxy)propyl]hydroxyacetamide, reference compound] | 64.2 | 14.7 ± 9.9 | 40 | 75.7 | 2.5 ± 1.6 | 25 | – | – | – | – | – | – | – | – | – | – | – | – |
